From the NIST ThermoML archive (doi:10.1007/s10765-010-0766-0)
Where “and” joins values, the source holds several entries; their conditions need not be identical. Identical values can stand only once.

Assay: wn = mass fraction of the nth substance listed
Conditions: Liquid, Pycnometric method, w2 = 0.4981

FC(F)C(F)(F)F [pentafluoroethane] + FCF
Conditions	mass density
277.15 K, 11982 kPa	1205.5 kg/m3
278.15 K, 12826 kPa	1205.4 kg/m3
279.15 K, 13669 kPa	1205.2 kg/m3
280.15 K, 14512 kPa	1205.1 kg/m3
281.15 K, 15355 kPa	1204.9 kg/m3
282.15 K, 16198 kPa	1204.8 kg/m3
283.15 K, 17040 kPa	1204.6 kg/m3
284.15 K, 17881 kPa	1204.5 kg/m3
285.15 K, 18722 kPa	1204.3 kg/m3
286.15 K, 19563 kPa	1204.2 kg/m3
287.15 K, 20403 kPa	1204 kg/m3
288.15 K, 21239 kPa	1203.8 kg/m3
289.15 K, 22077 kPa	1203.7 kg/m3
291.15 K, 23750 kPa	1203.4 kg/m3
292.15 K, 24585 kPa	1203.2 kg/m3
293.15 K, 25420 kPa	1203 kg/m3
294.15 K, 26254 kPa	1202.9 kg/m3
295.15 K, 27085 kPa	1202.7 kg/m3
296.15 K, 27917 kPa	1202.5 kg/m3
297.15 K, 8118 kPa	1113.5 kg/m3
297.15 K, 28747 kPa	1202.3 kg/m3
298.15 K, 29575 kPa	1202.2 kg/m3
299.15 K, 9422 kPa	1113.3 kg/m3
300.15 K, 10072 kPa	1113.2 kg/m3
300.15 K, 10089 kPa	1113.1 kg/m3
301.15 K, 10723 kPa	1113.1 kg/m3
301.15 K, 10737 kPa	1113 kg/m3
302.15 K, 11374 kPa	1113 kg/m3
302.15 K, 11385 kPa	1112.9 kg/m3
303.15 K, 12024 kPa	1112.9 kg/m3
303.15 K, 12032 kPa	1112.8 kg/m3
304.15 K, 12672 kPa	1112.8 kg/m3
304.15 K, 12680 kPa	1112.7 kg/m3
305.15 K, 13320 kPa	1112.6 kg/m3
305.15 K, 13327 kPa	1112.5 kg/m3
306.15 K, 13970 kPa	1112.5 kg/m3
306.15 K, 13973 kPa	1112.4 kg/m3
307.15 K, 14620 kPa	1112.4 kg/m3 and 1112.3 kg/m3
308.15 K, 15268 kPa	1112.3 kg/m3 and 1112.2 kg/m3
309.15 K, 15915 kPa	1112.1 kg/m3
309.15 K, 15917 kPa	1112.1 kg/m3
310.15 K, 16562 kPa	1111.9 kg/m3
310.15 K, 16564 kPa	1112 kg/m3
311.15 K, 17208 kPa	1111.8 kg/m3
311.15 K, 17212 kPa	1111.9 kg/m3
312.15 K, 17853 kPa	1111.7 kg/m3
312.15 K, 17859 kPa	1111.7 kg/m3
313.15 K, 18499 kPa	1111.6 kg/m3
313.15 K, 18506 kPa	1111.6 kg/m3
314.15 K, 19144 kPa	1111.4 kg/m3
314.15 K, 19153 kPa	1111.5 kg/m3
315.15 K, 19788 kPa	1111.3 kg/m3
315.15 K, 19798 kPa	1111.3 kg/m3
316.15 K, 20432 kPa	1111.2 kg/m3
316.15 K, 20443 kPa	1111.2 kg/m3
317.15 K, 21075 kPa	1111 kg/m3
317.15 K, 21088 kPa	1111.1 kg/m3
318.15 K, 21719 kPa	1110.9 kg/m3
318.15 K, 21733 kPa	1110.9 kg/m3
319.15 K, 22362 kPa	1110.7 kg/m3
319.15 K, 22377 kPa	1110.8 kg/m3
320.15 K, 23005 kPa	1110.6 kg/m3
320.15 K, 23021 kPa	1110.7 kg/m3
321.15 K, 23648 kPa	1110.5 kg/m3
321.15 K, 23665 kPa	1110.5 kg/m3
322.15 K, 24289 kPa	1110.3 kg/m3
322.15 K, 24307 kPa	1110.4 kg/m3
323.15 K, 24930 kPa	1110.2 kg/m3
323.15 K, 24949 kPa	1110.3 kg/m3
324.15 K, 25571 kPa	1110 kg/m3
324.15 K, 25590 kPa	1110.1 kg/m3
325.15 K, 26210 kPa	1109.9 kg/m3
325.15 K, 26231 kPa	1110 kg/m3
326.15 K, 26850 kPa	1109.8 kg/m3
326.15 K, 26871 kPa	1109.8 kg/m3
327.15 K, 27488 kPa	1109.6 kg/m3
327.15 K, 27511 kPa	1109.7 kg/m3
328.15 K, 28127 kPa	1109.4 kg/m3
328.15 K, 28150 kPa	1109.5 kg/m3
329.15 K, 5865 kPa	921.2 kg/m3
329.15 K, 5904 kPa	921.4 kg/m3
329.15 K, 28764 kPa	1109.3 kg/m3
329.15 K, 28790 kPa	1109.4 kg/m3
330.15 K, 6231 kPa	921.1 kg/m3
330.15 K, 6255 kPa	921.2 kg/m3
330.15 K, 6269 kPa	921.3 kg/m3
330.15 K, 29402 kPa	1109.1 kg/m3
330.15 K, 29426 kPa	1109.2 kg/m3
331.15 K, 6598 kPa	921 kg/m3
331.15 K, 6620 kPa	921.1 kg/m3
331.15 K, 6635 kPa	921.2 kg/m3
331.15 K, 30065 kPa	1109.1 kg/m3
332.15 K, 6965 kPa	921 kg/m3
332.15 K, 6987 kPa	921 kg/m3
332.15 K, 7002 kPa	921.1 kg/m3
333.15 K, 7333 kPa	920.9 kg/m3
333.15 K, 7355 kPa	921 kg/m3
333.15 K, 7370 kPa	921.1 kg/m3
334.15 K, 7700 kPa	920.8 kg/m3
334.15 K, 7723 kPa	920.9 kg/m3
334.15 K, 7736 kPa	921 kg/m3
335.15 K, 8069 kPa	920.7 kg/m3
335.15 K, 8090 kPa	920.8 kg/m3
335.15 K, 8104 kPa	920.9 kg/m3
336.15 K, 8438 kPa	920.7 kg/m3
336.15 K, 8457 kPa	920.7 kg/m3
336.15 K, 8472 kPa	920.8 kg/m3
337.15 K, 8807 kPa	920.6 kg/m3
337.15 K, 8826 kPa	920.6 kg/m3
337.15 K, 8840 kPa	920.8 kg/m3
338.15 K, 9176 kPa	920.5 kg/m3
338.15 K, 9194 kPa	920.5 kg/m3
338.15 K, 9209 kPa	920.7 kg/m3
339.15 K, 9546 kPa	920.4 kg/m3
339.15 K, 9563 kPa	920.4 kg/m3
339.15 K, 9579 kPa	920.6 kg/m3
340.15 K, 9916 kPa	920.3 kg/m3
340.15 K, 9933 kPa	920.3 kg/m3
340.15 K, 9949 kPa	920.5 kg/m3
341.15 K, 10286 kPa	920.3 kg/m3
341.15 K, 10302 kPa	920.2 kg/m3
341.15 K, 10320 kPa	920.4 kg/m3
342.15 K, 10657 kPa	920.2 kg/m3
342.15 K, 10672 kPa	920.1 kg/m3
342.15 K, 10691 kPa	920.4 kg/m3
343.15 K, 11028 kPa	920.1 kg/m3
343.15 K, 11043 kPa	920.1 kg/m3
343.15 K, 11061 kPa	920.3 kg/m3
344.15 K, 11399 kPa	920.1 kg/m3
344.15 K, 11413 kPa	920 kg/m3
344.15 K, 11431 kPa	920.2 kg/m3
345.15 K, 6187 kPa	774 kg/m3
345.15 K, 11770 kPa	920 kg/m3
345.15 K, 11784 kPa	919.9 kg/m3
345.15 K, 11802 kPa	920.1 kg/m3
346.15 K, 6420 kPa	774.1 kg/m3
346.15 K, 12143 kPa	919.9 kg/m3
346.15 K, 12155 kPa	919.8 kg/m3
346.15 K, 12174 kPa	920.1 kg/m3
347.15 K, 6655 kPa	774 kg/m3
347.15 K, 6657 kPa	773.9 kg/m3
347.15 K, 12515 kPa	919.8 kg/m3
347.15 K, 12527 kPa	919.7 kg/m3
347.15 K, 12547 kPa	920 kg/m3
348.15 K, 6890 kPa	773.9 kg/m3
348.15 K, 6893 kPa	773.9 kg/m3
348.15 K, 12887 kPa	919.8 kg/m3
348.15 K, 12899 kPa	919.6 kg/m3
348.15 K, 12919 kPa	919.9 kg/m3
349.15 K, 7127 kPa	773.9 kg/m3
349.15 K, 7130 kPa	773.8 kg/m3
349.15 K, 13259 kPa	919.7 kg/m3
349.15 K, 13271 kPa	919.6 kg/m3
349.15 K, 13292 kPa	919.8 kg/m3
350.15 K, 7364 kPa	773.8 kg/m3
350.15 K, 7368 kPa	773.8 kg/m3
350.15 K, 13631 kPa	919.6 kg/m3
350.15 K, 13643 kPa	919.5 kg/m3
350.15 K, 13664 kPa	919.7 kg/m3
351.15 K, 7602 kPa	773.8 kg/m3
351.15 K, 7606 kPa	773.7 kg/m3
351.15 K, 14004 kPa	919.5 kg/m3
351.15 K, 14015 kPa	919.4 kg/m3
351.15 K, 14036 kPa	919.6 kg/m3
352.15 K, 7841 kPa	773.7 kg/m3
352.15 K, 7845 kPa	773.6 kg/m3
352.15 K, 14377 kPa	919.4 kg/m3
352.15 K, 14387 kPa	919.3 kg/m3
352.15 K, 14409 kPa	919.6 kg/m3
353.15 K, 8080 kPa	773.7 kg/m3
353.15 K, 8084 kPa	773.6 kg/m3
353.15 K, 14750 kPa	919.3 kg/m3
353.15 K, 14761 kPa	919.2 kg/m3
353.15 K, 14783 kPa	919.5 kg/m3
354.15 K, 8320 kPa	773.6 kg/m3
354.15 K, 8324 kPa	773.5 kg/m3
354.15 K, 15123 kPa	919.2 kg/m3
354.15 K, 15133 kPa	919.1 kg/m3
354.15 K, 15157 kPa	919.4 kg/m3
355.15 K, 8560 kPa	773.6 kg/m3
355.15 K, 8565 kPa	773.5 kg/m3
355.15 K, 15496 kPa	919.1 kg/m3
355.15 K, 15507 kPa	919 kg/m3
355.15 K, 15531 kPa	919.3 kg/m3
356.15 K, 8801 kPa	773.5 kg/m3
356.15 K, 8806 kPa	773.4 kg/m3
356.15 K, 15869 kPa	919.1 kg/m3
356.15 K, 15880 kPa	919 kg/m3
356.15 K, 15904 kPa	919.2 kg/m3
